According to US10336732B2, “1-heterocyclyl isochromanyl compounds and analogs for treating CNS disorders” (Sunovion Pharmaceuticals Inc., priority 2015, dated 2019):

Test system: mice
Assay: Neuropharmacological assay (SmartCube), behavioral signature of compound-treated mice
Type: in vivo
Settings: i.p. 15 min before behavioral test, most efficacious dose(s) of 3 doses
Text: Neurosci. […] As reported in Roberds, because psychiatric diseases generally result from disorders of cell-cell communication or circuitry, intact systems are useful in detecting improvement in disease-relevant endpoints. These endpoints are typically behavioral in nature, often requiring human observation and interpretation. To facilitate testing of multiple compounds for behavioral effects relevant to psychiatric disease, PsychoGenics, Inc. (Tarrytown, N.Y., “PGI”) developed SmartCube™, an automated system in which behaviors of compound-treated mice are captured by digital video and analyzed with computer algorithms. […] PGI Analytical Systems uses data from SmartCube™ to compare the behavioral signature of a test compound to a database of behavioral signatures obtained using a large set of diverse reference compounds. (The composition of the database as well as validation of the method is further described in Roberds). In this way, the neuropharmacological effects of a test compound can be predicted by similarity to major classes of compounds, such as antipsychotics, anxiolytics and antidepressants.
The SmartCube™ system produces an activity signature indicating the probability that the activity of the test compound at the administered dose matches a given class of neuropharmacological agents. (See, e.g., Roberds, FIGS. 2 and 3). The test compound is simultaneously compared against multiple classes of agents; thus, a separate probability is generated for each behavioral effect measured (e.g., anxiolytic activity, analgesic activity, etc.). In Table 4, these probabilities are reported for each behavioral effect measured as follows:
Provided compounds were dissolved in a mixture of Pharmasolve™ (N-methyl-2-pyrrolidone), polyethylene glycol and propylene glycol, and were injected i.p. 15 min. before the behavioral test. For each compound, injections were administered at 3 different doses. For each behavioral effect measured, results for the most efficacious dose(s) are presented.

SMILES | AD: ADHD (probability that behavioral signature matches class) | AG: analgesic (probability that behavioral signature matches class) | AX: anxiolytic (probability that behavioral signature matches class) | CE: cognitive enhancer (probability that behavioral signature matches class) | DP: anti-depressant (probability that behavioral signature matches class) | HA: hallucinogen (probability that behavioral signature matches class) | MS: mood stabilizer (probability that behavioral signature matches class) | PS: anti-psychotic (probability that behavioral signature matches class) | SD: sedative hypnotic (probability that behavioral signature matches class) | UN: uncharacterized CNS activity (probability that behavioral signature matches class)
c1ccc2c(c1)CCO[C@@H]2[C@@H]1CCCCN1 [Compound I-71, (S)-2-((S)-isochroman-1-yl)piperidine] | + (LOQ ≤ + <5%) | + (LOQ ≤ + <5%) | +++ (25% ≤ +++ <50%) | ++ (5% ≤ ++ <25%) | ++ (5% ≤ ++ <25%) | + (LOQ ≤ + <5%) | ++ (5% ≤ ++ <25%) | ++ (5% ≤ ++ <25%) | + (LOQ ≤ + <5%) | + (LOQ ≤ + <5%)
Fc1ccc2c(c1)CCO[C@H]2[C@@H]1COCCN1 [Compound I-78, (S)-3-((R)-6-fluoroisochroman-1-yl)morpholine] | + (LOQ ≤ + <5%) | ++ (5% ≤ ++ <25%) | +++ (25% ≤ +++ <50%) | ++ (5% ≤ ++ <25%) | ++ (5% ≤ ++ <25%) | + (LOQ ≤ + <5%) | + (LOQ ≤ + <5%) | ++ (5% ≤ ++ <25%) | + (LOQ ≤ + <5%) | + (LOQ ≤ + <5%)
Fc1ccc2c(c1)CO[C@H]2[C@H]1CCN1 [Compound I-128, (R)-2-((R)-5-fluoro-1,3-dihydroisobenzofuran-1-yl)azetidine] | + (LOQ ≤ + <5%) | ++ (5% ≤ ++ <25%) | ++ (5% ≤ ++ <25%) | + (LOQ ≤ + <5%) | ++ (5% ≤ ++ <25%) | + (LOQ ≤ + <5%) | + (LOQ ≤ + <5%) | ++++ (50% ≤ ++++) | + (LOQ ≤ + <5%) | + (LOQ ≤ + <5%)
Fc1ccc2c(c1)CCCO[C@H]2[C@@H]1CCCN1 [Compound I-111, (S)-2-((R)-7-fluoro-1,3,4,5-tetrahydrobenzo[c]oxepin-1-yl)pyrrolidine] | + (LOQ ≤ + <5%) | ++ (5% ≤ ++ <25%) | ++ (5% ≤ ++ <25%) | ++ (5% ≤ ++ <25%) | ++ (5% ≤ ++ <25%) | + (LOQ ≤ + <5%) | + (LOQ ≤ + <5%) | ++++ (50% ≤ ++++) | ++ (5% ≤ ++ <25%) | +++ (25% ≤ +++ <50%)
Cc1cccc2c1[C@@H]([C@@H]1CCCN1)OCC2 [Compound I-21, (S)-2-((S)-8-methylisochroman-1-yl)pyrrolidine] | + (LOQ ≤ + <5%) | ++ (5% ≤ ++ <25%) | ++ (5% ≤ ++ <25%) | + (LOQ ≤ + <5%) | ++ (5% ≤ ++ <25%) | + (LOQ ≤ + <5%) | + (LOQ ≤ + <5%) | ++ (5% ≤ ++ <25%) | + (LOQ ≤ + <5%) | +++ (25% ≤ +++ <50%)
Fc1ccc2c(c1)[C@@H]([C@@H]1CCCN1)OCCC2 [Compound I-106, (S)-2-((S)-8-fluoro-1,3,4,5-tetrahydrobenzo[c]oxepin-1-yl)pyrrolidine] | + (LOQ ≤ + <5%) | ++ (5% ≤ ++ <25%) | ++ (5% ≤ ++ <25%) | +++ (25% ≤ +++ <50%) | + (LOQ ≤ + <5%) | + (LOQ ≤ + <5%) | + (LOQ ≤ + <5%) | ++ (5% ≤ ++ <25%) | + (LOQ ≤ + <5%) | + (LOQ ≤ + <5%)
N#Cc1ccc2c(c1)CCO[C@H]2[C@H]1CCCN1 [Compound I-45, (R)-1-((R)-pyrrolidin-2-yl)isochroman-6-carbonitrile] | + (LOQ ≤ + <5%) | ++ (5% ≤ ++ <25%) | +++ (25% ≤ +++ <50%) | + (LOQ ≤ + <5%) | ++ (5% ≤ ++ <25%) | + (LOQ ≤ + <5%) | + (LOQ ≤ + <5%) | + (LOQ ≤ + <5%) | + (LOQ ≤ + <5%) | + (LOQ ≤ + <5%)
C[C@@]1([C@@H]2CCCN2)OCc2cc(F)ccc21 [Compound I-122, (S)-2-((R)-5-fluoro-1-methyl-1,3-dihydroisobenzofuran-1-yl)pyrrolidine] | + (LOQ ≤ + <5%) | + (LOQ ≤ + <5%) | ++ (5% ≤ ++ <25%) | + (LOQ ≤ + <5%) | ++ (5% ≤ ++ <25%) | + (LOQ ≤ + <5%) | + (LOQ ≤ + <5%) | + (LOQ ≤ + <5%) | + (LOQ ≤ + <5%) | + (LOQ ≤ + <5%)
CC1(C)Cc2ccccc2[C@@H]([C@@H]2CCCN2)O1 [Compound I-65, (S)-2-((S)-3,3-dimethylisochroman-1-yl)pyrrolidine] | + (LOQ ≤ + <5%) | +++ (25% ≤ +++ <50%) | ++ (5% ≤ ++ <25%) | ++ (5% ≤ ++ <25%) | ++ (5% ≤ ++ <25%) | + (LOQ ≤ + <5%) | + (LOQ ≤ + <5%) | ++ (5% ≤ ++ <25%) | ++ (5% ≤ ++ <25%) | + (LOQ ≤ + <5%)
Cc1ccc2c(c1)[C@@H](C1CNC1)OCC2 [Compound I-116, (R)-3-(7-methylisochroman-1-yl)azetidine] | + (LOQ ≤ + <5%) | + (LOQ ≤ + <5%) | ++ (5% ≤ ++ <25%) | + (LOQ ≤ + <5%) | ++ (5% ≤ ++ <25%) | + (LOQ ≤ + <5%) | + (LOQ ≤ + <5%) | +++ (25% ≤ +++ <50%) | ++ (5% ≤ ++ <25%) | + (LOQ ≤ + <5%)

Same assay, conditions: i.p. 15 min before behavioral test, most efficacious dose(s) of 3 doses

SMILES | XG: anxiogenic (probability that behavioral signature matches class)
c1ccc2c(c1)CCO[C@@H]2[C@@H]1CCCCN1 [Compound I-71, (S)-2-((S)-isochroman-1-yl)piperidine] | + (LOQ ≤ + <5%)
Fc1ccc2c(c1)CCO[C@H]2[C@@H]1COCCN1 [Compound I-78, (S)-3-((R)-6-fluoroisochroman-1-yl)morpholine] | + (LOQ ≤ + <5%)
Fc1ccc2c(c1)CO[C@H]2[C@H]1CCN1 [Compound I-128, (R)-2-((R)-5-fluoro-1,3-dihydroisobenzofuran-1-yl)azetidine] | + (LOQ ≤ + <5%)
Fc1ccc2c(c1)CCCO[C@H]2[C@@H]1CCCN1 [Compound I-111, (S)-2-((R)-7-fluoro-1,3,4,5-tetrahydrobenzo[c]oxepin-1-yl)pyrrolidine] | + (LOQ ≤ + <5%)
Cc1cccc2c1[C@@H]([C@@H]1CCCN1)OCC2 [Compound I-21, (S)-2-((S)-8-methylisochroman-1-yl)pyrrolidine] | + (LOQ ≤ + <5%)
Fc1ccc2c(c1)[C@@H]([C@@H]1CCCN1)OCCC2 [Compound I-106, (S)-2-((S)-8-fluoro-1,3,4,5-tetrahydrobenzo[c]oxepin-1-yl)pyrrolidine] | + (LOQ ≤ + <5%)
N#Cc1ccc2c(c1)CCO[C@H]2[C@H]1CCCN1 [Compound I-45, (R)-1-((R)-pyrrolidin-2-yl)isochroman-6-carbonitrile] | + (LOQ ≤ + <5%)
C[C@@]1([C@@H]2CCCN2)OCc2cc(F)ccc21 [Compound I-122, (S)-2-((R)-5-fluoro-1-methyl-1,3-dihydroisobenzofuran-1-yl)pyrrolidine] | + (LOQ ≤ + <5%)
CC1(C)Cc2ccccc2[C@@H]([C@@H]2CCCN2)O1 [Compound I-65, (S)-2-((S)-3,3-dimethylisochroman-1-yl)pyrrolidine] | + (LOQ ≤ + <5%)
Cc1ccc2c(c1)[C@@H](C1CNC1)OCC2 [Compound I-116, (R)-3-(7-methylisochroman-1-yl)azetidine] | + (LOQ ≤ + <5%)
